The test concerns rabbit ventricular myocytes. As to the kind of experiment: Intracellular sodium [Na^+]i in ventricular myocytes during PMI, Sodium Green flow cytometry. It is filed as cell-based. Conditions: PMI + ODSH 100 μg/mL; n = 7; PMI alone 11.16 ± 0.90, Hepes 6.04 ± 0.25. On the procedure:
In these studies, intracellular calcium concentration [Ca^++]i was measured by flow cytometry. Measurement of isolated mouse and rabbit ventricular myocyte [Ca^2+]i and [Na^+]i by flow cytometry has been described (Zhang et al., J. Cardiovasc. Pharmacol. 51: 443-449 (2008); Li et al., J. Mol. Cell. Cardiol. 33: 2145-2155 (2001)). [Ca^++]i was measured with the Ca^++ sensitive fluorescent probe, Fluo 3-AM (Molecular Probes, Eugene, Oreg.), using a FACScan (Becton-Dickinson, MA). The cells were exposed to 4 μmol/L Fluo-3 AM for 30 min at 37° C. The cells were then separated into aliquots. After 40 min of wash, the cells were exposed to paced metabolic ischemia (MI) for 45 min at 37° C. Metabolic ischemia was accomplished by incubating cells in a glucose-free MKRBB solution (pH 7.40) containing 2 mmol/L sodium cyanide (NaCN) to impair mitochondrial and glycolytic generation of ATP. […] Approximately 2×10^3 myocytes were analyzed to calculate average emission fluorescence intensity in each sample. […] Only those cells with low fluorescence intensity at 670 nm (PI-negative cells or viable cells) were included in the comparative analysis of [Ca^++]i. The sample [Ca^2+]i values were calculated by Mn^2+ quenching (Sugishita et al, 2001) and [Na^+]i values by comparison with a standard curve of varied [Na^+]i versus Na Green fluorescence. […] Results were expressed as means±SEM. […]

With 2-O, 3-O desulfated heparin [ODSH], the [Na^+]i came to 7.85 ± 0.45 mM.

The values are drawn from patent publication US20090238852A1, “METHODS FOR CONTROLLING INTRACELLULAR CALCIUM LEVELS ASSOCIATED WITH AN ISCHEMIC EVENT” (University of Utah Research Foundation, priority 2008, published 2009).
